Test results: patent US20060115815A1 (priority 2002, published 2006)
pEC50: −log10 of the molar value.

tested on: wild-type HIV-1 strain IIIB; experiment: microbe, parasite or virus in culture; type: cell-based; conditions: read-out: EC50

SMILES | pEC50
CCOP(=O)(CCC1=CCN(CC(NC(=O)OC2COC3OCCC23)C(O)CN(CC(C)C)S(=O)(=O)c2ccc(OC)cc2)CC1)OCC (stereo not drawn) | > 7.30
CCOC(=O)C(C)OP(=O)(Oc1ccccc1)c1ccc(CN(C)CC(NC(=O)OC2COC3OCCC23)C(O)CN(CC(C)C)S(=O)(=O)c2ccc(OC)cc2)cc1 (stereo not drawn) | > 7.30
CCOC(=O)C(C)OP(=O)(Cc1ccc2c(c1)CCN(C[C@H](NC(=O)O[C@H]1CO[C@H]3OCC[C@H]31)[C@H](O)CN(CC(C)C)S(=O)(=O)c1ccc(OC)cc1)C2)Oc1ccccc1 (stereo partly drawn) | 6.30 to 7.30
COc1ccc(S(=O)(=O)N(CC(C)C)CC(O)C(Cc2ccc(C)cc2)NC(=O)OC2COC3OCCC23)cc1 (stereo not drawn) | > 7.30
COc1ccc(S(=O)(=O)N(CC(C)C)CC(O)C(Cc2ccc(O)cc2)NC(=O)OC2COC3OCCC23)cc1 (stereo not drawn) | > 7.30
COc1ccc(S(=O)(=O)N(C[C@@H](O)[C@H](Cc2ccccc2)NC(=O)O[C@H]2CO[C@H]3OCC[C@H]32)CC(C)(C)COCP(=O)(O)O)cc1 | 5.30 to 6.30
CCOC(=O)[C@H](C)OP(=O)(COc1ccc(C[C@H](NC(=O)O[C@H]2CO[C@H]3OCC[C@H]32)[C@H](O)CN(CC(C)C)S(=O)(=O)c2ccc(OC)cc2)cc1)Oc1cccc(CN(C)CCOC)c1 (stereo partly drawn) [drawing 660 R1=OPh-m-CH2NMeC2OM R2=(S)Lac-Et] | 6.30 to 7.30
CCOC(=O)[C@H](C)OP(=O)(COc1ccc(C[C@H](NC(=O)O[C@H]2CO[C@H]3OCC[C@H]32)[C@H](O)CN(CC(C)C)S(=O)(=O)c2ccc(OC)cc2)cc1)Oc1cccc(CO)c1 (stereo partly drawn) [drawing 660 R1=OPh-m-CH2OH R2=(S)Lac-Et] | 6.30 to 7.30
CCOC(=O)[C@H](C)OP(=O)(COc1ccc(C[C@H](NC(=O)O[C@H]2CO[C@H]3OCC[C@H]32)[C@H](O)CN(CC(C)C)S(=O)(=O)c2ccc(OC)cc2)cc1)Oc1cccc(CN2CCCCC2)c1 (stereo partly drawn) [drawing 660 R1=OPh-m-CH2Pip R2=(S)Lac-Et] | 6.30 to 7.30
CCOC(=O)C(C)OP(=O)(COc1ccc(CC(NC(=O)OC2COC3OCCC23)C(O)CN(CC(C)C)S(=O)(=O)c2ccc(OC)cc2)cc1)Oc1cccc(C(=O)O)c1 [drawing 660 R1=OPh-m-COOH R2=(S)Lac-Et] | 6.30 to 7.30
CCOC(=O)C(C)OP(=O)(COc1ccc(CC(NC(=O)OC2COC3OCCC23)C(O)CN(CC(C)C)S(=O)(=O)c2ccc(OC)cc2)cc1)Oc1ccccc1OCC [drawing 660 R1=OPh-o-OEt R2=(S)Lac-Et] | > 7.30
CCOC(=O)C(C)OP(=O)(COc1ccc(CC(NC(=O)OC2COC3OCCC23)C(O)CN(CC(C)C)S(=O)(=O)c2ccc(OC)cc2)cc1)Oc1ccccc1CC(C)C [drawing 660 R1=OPh—o-i-But R2=(S)Lac-Et] | > 7.30
CCCCc1ccc(OP(=O)(COc2ccc(C[C@H](NC(=O)O[C@H]3CO[C@H]4OCC[C@H]43)[C@H](O)CN(CC(C)C)S(=O)(=O)c3ccc(OC)cc3)cc2)O[C@@H](C)C(=O)OCC)cc1 (stereo partly drawn) [drawing 660 R1=OPh—p-n-But R2=(S)Lac-Et] | > 7.30
CCCCCCCCc1ccc(OP(=O)(COc2ccc(C[C@H](NC(=O)O[C@H]3CO[C@H]4OCC[C@H]43)[C@H](O)CN(CC(C)C)S(=O)(=O)c3ccc(OC)cc3)cc2)O[C@@H](C)C(=O)OCC)cc1 (stereo partly drawn) [drawing 660 R1=OPh—p-n-Oct R2=(S)Lac-Et] | 6.30 to 7.30
CCOC(=O)[C@H](C)OP(=O)(COc1ccc(C[C@H](NC(=O)O[C@H]2CO[C@H]3OCC[C@H]32)[C@H](O)CN(CC(C)C)S(=O)(=O)c2ccc(OC)cc2)cc1)ON1CCCCC1 (stereo partly drawn) [drawing 660 R1=OPip R2=(S)Lac-Et] | 5.30 to 6.30
CCOC(=O)C(C)OP(=O)(COc1ccc(CC(NC(=O)OC2COC3OCCC23)C(O)CN(CC(C)C)S(=O)(=O)c2ccc(OC)cc2)cc1)Oc1ccccc1 (stereo not drawn) [drawing 661 R1=OPh R2=Lac-Et] | 6.30 to 7.30
CCOC(=O)C(CC)NP(=O)(CCNCc1ccc(C[C@H](NC(=O)O[C@H]2CO[C@H]3OCC[C@H]32)[C@H](O)CN(CC(C)C)S(=O)(=O)c2ccc(OC)cc2)cc1)Oc1ccccc1 (stereo partly drawn) [drawing 662 R1=Ph R2=Aba-Et] | 5.30 to 6.30
CCCCOC(=O)C(C)OP(=O)(COc1ccc(C[C@H](NC(=O)O[C@H]2CO[C@H]3OCC[C@H]32)[C@H](O)CN(CC(C)C)S(=O)(=O)c2cccc(N)c2)cc1)Oc1ccccc1 (stereo partly drawn) [drawing 764] | 6.30 to 7.30

tested on: mutant HIV-1 with I84V/L90M mutations in the protease gene; experiment: not given; type: cell-based; conditions: I84V/L90M mutant

SMILES | I84V/L90M fold change
COc1ccc(S(=O)(=O)N(CC(C)C)CC(O)C(Cc2ccc(C)cc2)NC(=O)OC2COC3OCCC23)cc1 (stereo not drawn) | + (>3 to ≦10)
COc1ccc(S(=O)(=O)N(CC(C)C)CC(O)C(Cc2ccc(O)cc2)NC(=O)OC2COC3OCCC23)cc1 (stereo not drawn) | — (≦3)
COc1ccc(S(=O)(=O)N(CC(C)C)CC(O)C(Cc2ccc(OCc3ccccc3)cc2)NC(=O)OC2COC3OCCC23)cc1 (stereo not drawn) | — (≦3)
COc1ccc(S(=O)(=O)N(CCN(C)C)CC(O)C(Cc2ccc(OCc3ccccc3)cc2)NC(=O)OC2COC3OCCC23)cc1 (stereo not drawn) | — (≦3)
COc1ccc(S(=O)(=O)N(CCN2CCOCC2)CC(O)C(Cc2ccc(OCP(=O)(O)O)cc2)NC(=O)OC2COC3OCCC23)cc1 (stereo not drawn) | + (>3 to ≦10)
COc1ccc(S(=O)(=O)N(CCN2CCOCC2)CC(O)C(Cc2ccc(OCP(=O)(OCc3ccccc3)OCc3ccccc3)cc2)NC(=O)OC2COC3OCCC23)cc1 (stereo not drawn) | + (>3 to ≦10)
COc1ccc(S(=O)(=O)N(Cc2ccccc2)CC(O)C(Cc2ccccc2)NC(=O)OC2COC3OCCC23)cc1 (stereo not drawn) | +++ (>30)
COc1ccc(S(=O)(=O)N(CC(O)C(Cc2ccccc2)NC(=O)OC2COC3OCCC23)CC(C)(C)CO)cc1 (stereo not drawn) | +++ (>30)
COc1ccc(S(=O)(=O)N(C[C@@H](O)[C@H](Cc2ccccc2)NC(=O)O[C@H]2CO[C@H]3OCC[C@H]32)CC(C)(C)COCP(=O)(O)O)cc1 | +++ (>30)
Cc1cccc(C)c1OCC(=O)NC(Cc1ccc(OCP(=O)(O)O)cc1)C(O)CN(CC(C)C)S(=O)(=O)c1ccc(N)cc1 (stereo not drawn) | + (>3 to ≦10)
Cc1ccc(C(=O)NC(Cc2ccc(OCP(=O)(O)O)cc2)C(O)CN(CC(C)C)S(=O)(=O)c2ccc(N)cc2)cc1O (stereo not drawn) | + (>3 to ≦10)
CC(C)CN(CC(O)C(Cc1ccc(OCP(=O)(OCc2ccccc2)OCc2ccccc2)cc1)NC(=O)OC1COC2OCCC12)S(=O)(=O)c1ccc(F)cc1 (stereo not drawn) | + (>3 to ≦10)
CC(C)CN(CC(O)C(Cc1ccc(OCP(=O)(OCc2ccccc2)OCc2ccccc2)cc1)NC(=O)OC1COC2OCCC12)S(=O)(=O)c1ccc(OC(F)(F)F)cc1 (stereo not drawn) | + (>3 to ≦10)
CC(C)CN(CC(O)C(Cc1ccccc1)NC(=O)OC1COC2OCCC12)S(=O)(=O)c1ccc(OCP(=O)(OCc2ccccc2)OCc2ccccc2)cc1 (stereo not drawn) | +++ (>30)
CC(C)CN(CC(O)C(Cc1ccccc1)NC(=O)OC1COC2OCCC12)S(=O)(=O)c1cccc(O)c1 (stereo not drawn) | + (>3 to ≦10)
CC(C)CN(CC(O)C(Cc1ccccc1)NC(=O)OC1COC2OCCC12)S(=O)(=O)c1cccc(OCP(=O)(O)O)c1 (stereo not drawn) | + (>3 to ≦10)
CCOP(=O)(COc1cc(S(=O)(=O)N(CC(C)C)CC(O)C(Cc2ccccc2)NC(=O)OC2COC3OCCC23)ccc1OC)OCC (stereo not drawn) | + (>3 to ≦10)
CC(C)CN(C[C@@H](O)[C@H](Cc1ccc(OCP(=O)(Oc2ccccc2)Oc2ccccc2)cc1)NC(=O)OC1CCOC1)S(=O)(=O)c1ccc(N)cc1 (stereo partly drawn) [NH2, phenol] | — (≦3)
COc1ccc(S(=O)(=O)N(CC(C)C)C[C@@H](O)[C@H](Cc2ccc(OCP(=O)(O)O)cc2)NC(=O)OC2CCOC2)cc1 (stereo partly drawn) [OMe, OH] | +++ (>30)
COc1ccc(S(=O)(=O)N(CC(C)C)C[C@@H](O)[C@H](Cc2ccc(OCP(=O)(Oc3ccccc3)Oc3ccccc3)cc2)NC(=O)OC2CCOC2)cc1 (stereo partly drawn) [OMe, phenol] | + (>3 to ≦10)

same assay, conditions: fold difference in EC50, mutant vs. wild type

SMILES | I84V/L90M fold change
CCOP(=O)(CN1CC=C(CC(NC(=O)OC2COC3OCCC23)C(O)CN(CC(C)C)S(=O)(=O)c2ccc(OC)cc2)CC1)OCC (stereo not drawn) | + (>3 to ≦10)
COc1ccc(S(=O)(=O)N(CC(C)C)CC(O)C(CC2=CCN(CCP(=O)(OCc3ccccc3)OCc3ccccc3)CC2)NC(=O)OC2COC3OCCC23)cc1 (stereo not drawn) | + (>3 to ≦10)
CCOP(=O)(CCC1=CCN(CC(NC(=O)OC2COC3OCCC23)C(O)CN(CC(C)C)S(=O)(=O)c2ccc(OC)cc2)CC1)OCC (stereo not drawn) | + (>3 to ≦10)
COc1ccc(S(=O)(=O)N(CC(C)C)CC(O)C(CNc2ccc(CP(=O)(O)O)cc2)NC(=O)OC2COC3OCCC23)cc1 (stereo not drawn) | + (>3 to ≦10)
CCOP(=O)(Cc1ccc(NCC(NC(=O)OC2COC3OCCC23)C(O)CN(CC(C)C)S(=O)(=O)c2ccc(OC)cc2)cc1)OCC (stereo not drawn) | + (>3 to ≦10)
CCOP(=O)(Cc1ccc(N(C)CC(NC(=O)OC2COC3OCCC23)C(O)CN(CC(C)C)S(=O)(=O)c2ccc(OC)cc2)cc1)OCC (stereo not drawn) | + (>3 to ≦10)
CCOC(=O)C(C)OP(=O)(Oc1ccccc1)c1ccc(CN(C)CC(NC(=O)OC2COC3OCCC23)C(O)CN(CC(C)C)S(=O)(=O)c2ccc(OC)cc2)cc1 (stereo not drawn) | + (>3 to ≦10)
CCOP(=O)(Cc1ccc2c(c1)CCN(CC(NC(=O)OC1COC3OCCC13)C(O)CN(CC(C)C)S(=O)(=O)c1ccc(OC)cc1)C2)OCC (stereo not drawn) | + (>3 to ≦10)
CCOC(=O)C(C)OP(=O)(Cc1ccc2c(c1)CCN(C[C@H](NC(=O)O[C@H]1CO[C@H]3OCC[C@H]31)[C@H](O)CN(CC(C)C)S(=O)(=O)c1ccc(OC)cc1)C2)Oc1ccccc1 (stereo partly drawn) | + (>3 to ≦10)
CCOC(=O)C(C)OP(=O)(COc1ccc2c(c1)CCN(CC(NC(=O)OC1COC3OCCC13)C(O)CN(CC(C)C)S(=O)(=O)c1ccc(OC)cc1)C2)Oc1ccccc1 (stereo not drawn) | + (>3 to ≦10)
COC(=O)N[C@H](C(=O)N[C@@H](Cc1ccccc1)[C@@H](O)CN(Cc1ccc(-c2ccccn2)cc1)NC(=O)[C@@H](NC(=O)OC)C(C)(C)C)C(C)(C)C [Atazanavir, reference compound] | +++ (>30)
CCCCOC(=O)C(CC)NP(=O)(COc1ccc(CC(NC(=O)OC2COC3OCCC23)C(O)CN(CC(C)C)S(=O)(=O)c2ccc(OC)cc2)cc1)NC(CC)C(=O)OCCCC (stereo not drawn) [drawing 655 R1=Aba-Bu R2=Aba-Bu] | + (>3 to ≦10)
CCCCOC(=O)C(CC(C)C)NP(=O)(COc1ccc(CC(NC(=O)OC2COC3OCCC23)C(O)CN(CC(C)C)S(=O)(=O)c2ccc(OC)cc2)cc1)NC(CC(C)C)C(=O)OCCCC (stereo not drawn) [drawing 655 R1=Leu-Bu R2=Leu-Bu] | + (>3 to ≦10)
